{"source": "the supplement of paper PMC10290057", "key": {"HCT116 [1]": {"system": "HCT116", "experiment": "AC50 cell viability (CellTiter-Glo); higher = less potent", "conditions": "48 h"}, "HCT116 [2]": {"system": "HCT116", "experiment": "efficacy (fitted maximal change in viability relative to DMSO control); higher = less cytotoxic (negative = loss of viability)", "conditions": "48 h"}}, "note": "Counter-ions that a name gives are not always drawn.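 Wherever AC50 cell viability (CellTiter-Glo) is given: HCT116 colorectal carcinoma cells screened at five concentrations per compound, luminescent viability scaled between DMSO wells and empty wells on each plate, curves fitted per compound.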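 Wherever efficacy (fitted maximal change in viability relative to DMSO control) is given: Luminescence-based viability readout, five doses per compound, normalized against on-plate DMSO and empty-well controls, followed by dose-response curve fitting for every drug.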"}
{"smiles": "CC(C)c1ccccc1Cc1cc(C(=O)Nc2ccc([S+](=O)([O-])c3ccccc3C(C)(C)C)cc2)c(O)c(O)c1O", "note": "[TW-37]", "values": [{"measurement": "AC50 cell viability", "setting": "HCT116 [1]", "value": 20.9, "unit": "µM"}, {"measurement": "efficacy", "setting": "HCT116 [2]", "value": -90.9, "unit": "%"}]}
{"smiles": "Nc1cccc(-c2cc3c(Oc4cccc(O)c4)ncnc3[nH]2)c1", "note": "[TWS-119]", "values": [{"measurement": "AC50 cell viability", "setting": "HCT116 [1]", "value": 11.8, "unit": "µM"}, {"measurement": "efficacy", "setting": "HCT116 [2]", "value": -90.2, "unit": "%"}]}
{"smiles": "CC(=O)Nc1ccc(C(=O)Nc2ccccc2N)cc1", "note": "[Tacedinaline]", "values": [{"measurement": "AC50 cell viability", "setting": "HCT116 [1]", "value": 5.9, "unit": "µM"}, {"measurement": "efficacy", "setting": "HCT116 [2]", "value": -69.7, "unit": "%"}]}
{"smiles": "CCC(CC)C(c1ccc(Nc2nc3ccccc3s2)cc1)n1cncn1", "note": "(stereo not drawn) [Talarozole (R enantiomer)]", "values": [{"measurement": "AC50 cell viability", "setting": "HCT116 [1]", "value": 20.9, "unit": "µM"}, {"measurement": "efficacy", "setting": "HCT116 [2]", "value": -96.4, "unit": "%"}]}
{"smiles": "CC/C(=C(\\c1ccccc1)c1ccc(OCCN(C)C)cc1)c1ccccc1", "note": "[Tamoxifen]", "values": [{"measurement": "AC50 cell viability", "setting": "HCT116 [1]", "value": 15.2, "unit": "µM"}, {"measurement": "efficacy", "setting": "HCT116 [2]", "value": -87.8, "unit": "%"}]}
{"smiles": "COc1cc2c(N3CCN(C(=O)Nc4ccc(OC(C)C)cc4)CC3)ncnc2cc1OCCCN1CCCCC1", "note": "[Tandutinib]", "values": [{"measurement": "AC50 cell viability", "setting": "HCT116 [1]", "value": 18.6, "unit": "µM"}, {"measurement": "efficacy", "setting": "HCT116 [2]", "value": -76, "unit": "%"}]}
{"smiles": "C=CCNC1=C2C[C@@H](C)C[C@H](OC)[C@H](O)[C@@H](C)/C=C(\\C)[C@H](OC(N)=O)[C@@H](OC)/C=C\\C=C(/C)C(=O)NC(=CC1=O)C2=O", "note": "[Tanespimycin]", "values": [{"measurement": "AC50 cell viability", "setting": "HCT116 [1]", "value": 3.72, "unit": "µM"}, {"measurement": "efficacy", "setting": "HCT116 [2]", "value": -65.7, "unit": "%"}]}
{"smiles": "Cc1nc(-c2cn3c(n2)-c2ccc(-c4cnn(C(C)(C)C(N)=O)c4)cc2OCC3)n(C(C)C)n1", "note": "[Taselisib (GDC-0032)]", "values": [{"measurement": "AC50 cell viability", "setting": "HCT116 [1]", "value": 5.9, "unit": "µM"}, {"measurement": "efficacy", "setting": "HCT116 [2]", "value": -77.1, "unit": "%"}]}
{"smiles": "CCCCCNC(=N)N/N=C/c1c[nH]c2ccc(OC)cc12", "note": "[Tegaserod maleate]", "values": [{"measurement": "AC50 cell viability", "setting": "HCT116 [1]", "value": 7.42, "unit": "µM"}, {"measurement": "efficacy", "setting": "HCT116 [2]", "value": -92.3, "unit": "%"}]}
{"smiles": "CNC(=O)c1cc(COc2nnc(Nc3ccc(Cl)cc3)c3ccoc23)ccn1", "note": "[Telatinib]", "values": [{"measurement": "AC50 cell viability", "setting": "HCT116 [1]", "value": 20.9, "unit": "µM"}, {"measurement": "efficacy", "setting": "HCT116 [2]", "value": -70.3, "unit": "%"}]}
{"smiles": "COc1cc([C@@H]2c3cc4c(cc3[C@@H](O[C@@H]3O[C@@H]5CO[C@@H](c6cccs6)O[C@H]5[C@H](O)[C@H]3O)[C@H]3COC(=O)[C@H]23)OCO4)cc(OC)c1O", "note": "[Teniposide]", "values": [{"measurement": "AC50 cell viability", "setting": "HCT116 [1]", "value": 4.17, "unit": "µM"}, {"measurement": "efficacy", "setting": "HCT116 [2]", "value": -104, "unit": "%"}]}
{"smiles": "COc1ccc(C[C@@H](C)[C@@H](C)Cc2ccc(OC)c(OC)c2)cc1OC", "note": "[Terameprocol]", "values": [{"measurement": "AC50 cell viability", "setting": "HCT116 [1]", "value": 1.05, "unit": "µM"}, {"measurement": "efficacy", "setting": "HCT116 [2]", "value": -51.5, "unit": "%"}]}
{"smiles": "COc1cc2c(Nc3ccc(Cl)c(Cl)c3F)ncnc2cc1OC[C@@H]1C[C@@H]2CN(C)C[C@@H]2C1", "note": "[Tesevatinib]", "values": [{"measurement": "AC50 cell viability", "setting": "HCT116 [1]", "value": 10.5, "unit": "µM"}, {"measurement": "efficacy", "setting": "HCT116 [2]", "value": -119, "unit": "%"}]}
{"smiles": "C/C=C(/C)C(=O)O[C@H]1C(C)=C2[C@H]([C@@H]1OC(=O)CCCCCCC)[C@@](C)(OC(C)=O)C[C@H](OC(=O)CCC)[C@@]1(O)[C@H]2OC(=O)[C@@]1(C)O", "note": "[Thapsigargin]", "values": [{"measurement": "AC50 cell viability", "setting": "HCT116 [1]", "value": 0.0525, "unit": "µM"}, {"measurement": "efficacy", "setting": "HCT116 [2]", "value": -93.2, "unit": "%"}]}
{"smiles": "O=C(NCc1ccccc1)c1csc(Nc2ccncn2)n1", "note": "[Thiazovivin]", "values": [{"measurement": "AC50 cell viability", "setting": "HCT116 [1]", "value": 20.9, "unit": "µM"}, {"measurement": "efficacy", "setting": "HCT116 [2]", "value": -84, "unit": "%"}]}
{"smiles": "COc1ccc2cc(-c3[nH]c(-c4ccc([S+](C)[O-])cc4)nc3-c3ccncc3)ccc2c1", "note": "(centres undefined) [Tie-2 kinase Inhibitor]", "values": [{"measurement": "AC50 cell viability", "setting": "HCT116 [1]", "value": 23.5, "unit": "µM"}, {"measurement": "efficacy", "setting": "HCT116 [2]", "value": -89.1, "unit": "%"}]}
{"smiles": "Cn1c(CCCCCCC(=O)NO)nc2cc(N(CCCl)CCCl)ccc21", "note": "[Tinostamustine]", "values": [{"measurement": "AC50 cell viability", "setting": "HCT116 [1]", "value": 2.95, "unit": "µM"}, {"measurement": "efficacy", "setting": "HCT116 [2]", "value": -84.7, "unit": "%"}]}
{"smiles": "Clc1ccc(C(Cn2ccnc2)OCc2ccsc2Cl)c(Cl)c1", "note": "(centres undefined) [Tioconazole]", "values": [{"measurement": "AC50 cell viability", "setting": "HCT116 [1]", "value": 18.6, "unit": "µM"}, {"measurement": "efficacy", "setting": "HCT116 [2]", "value": -84.3, "unit": "%"}]}
{"smiles": "NC/1=N/C2=C([NH]C=N2)C(=S)N1", "note": "[Tioguanine]", "values": [{"measurement": "AC50 cell viability", "setting": "HCT116 [1]", "value": 0.742, "unit": "µM"}, {"measurement": "efficacy", "setting": "HCT116 [2]", "value": -85.8, "unit": "%"}]}
{"smiles": "C[N]1C=NC=C1C(N)(C2=CC=C(Cl)C=C2)C3=CC\\4=C(C=C3)N(C)C(=O)\\C=C4C5=CC(=CC=C5)Cl", "note": "(centres undefined) [Tipifarnib,Freebase]", "values": [{"measurement": "AC50 cell viability", "setting": "HCT116 [1]", "value": 20.9, "unit": "µM"}, {"measurement": "efficacy", "setting": "HCT116 [2]", "value": -120, "unit": "%"}]}
{"smiles": "C[N]1C=NC=C1[C@@](N)(C2=CC=C(Cl)C=C2)C3=CC=C4N(C)C(=O)\\C=C(\\C5=CC=CC(=C5)Cl)C4=C3", "note": "[Tipifarnib]", "values": [{"measurement": "AC50 cell viability", "setting": "HCT116 [1]", "value": 9.34, "unit": "µM"}, {"measurement": "efficacy", "setting": "HCT116 [2]", "value": -107, "unit": "%"}]}
{"smiles": "Nc1n[n+]([O-])c2ccccc2[n+]1[O-]", "note": "[Tirapazamine]", "values": [{"measurement": "AC50 cell viability", "setting": "HCT116 [1]", "value": 13.2, "unit": "µM"}, {"measurement": "efficacy", "setting": "HCT116 [2]", "value": -30.4, "unit": "%"}]}
{"smiles": "O=C1NC(=O)[C@@H](c2c[nH]c3ccccc23)[C@H]1c1cn2c3c(cccc13)CCC2", "note": "[Tivantinib (ARQ 197)]", "values": [{"measurement": "AC50 cell viability", "setting": "HCT116 [1]", "value": 0.934, "unit": "µM"}, {"measurement": "efficacy", "setting": "HCT116 [2]", "value": -62.9, "unit": "%"}]}
{"smiles": "COc1cc2nccc(Oc3ccc(NC(=O)Nc4cc(C)on4)c(Cl)c3)c2cc1OC", "note": "[Tivozanib (AV-951)]", "values": [{"measurement": "AC50 cell viability", "setting": "HCT116 [1]", "value": 11.8, "unit": "µM"}, {"measurement": "efficacy", "setting": "HCT116 [2]", "value": -80.3, "unit": "%"}]}
{"smiles": "Cc1[nH]c(/C=C2\\C(=O)Nc3ccc(F)cc32)c(C)c1C(=O)NCCN1CCCC1", "note": "[Toceranib]", "values": [{"measurement": "AC50 cell viability", "setting": "HCT116 [1]", "value": 8.11, "unit": "µM"}, {"measurement": "efficacy", "setting": "HCT116 [2]", "value": -95.7, "unit": "%"}]}
{"smiles": "CC[C@@]1(O)C(=O)OCc2c1cc1n(c2=O)Cc2cc3c(CN(C)C)c(O)ccc3nc2-1.Cl", "note": "[Topotecan hydrochloride]", "values": [{"measurement": "AC50 cell viability", "setting": "HCT116 [1]", "value": 0.59, "unit": "µM"}, {"measurement": "efficacy", "setting": "HCT116 [2]", "value": -93, "unit": "%"}]}
{"smiles": "CCOC(=O)N1c2ccc(C(F)(F)F)cc2[C@@H](N(Cc2cc(C(F)(F)F)cc(C(F)(F)F)c2)C(=O)OC)C[C@H]1CC", "note": "[Torcetrapib]", "values": [{"measurement": "AC50 cell viability", "setting": "HCT116 [1]", "value": 8.33, "unit": "µM"}, {"measurement": "efficacy", "setting": "HCT116 [2]", "value": -45.4, "unit": "%"}]}
